# Measurements: patent US11666559B2, “Spiro-lactam compounds, process and uses thereof” (UNIVERSIDADE DE COIMBRA, priority 2017, dated 2023)
# “Also recorded” adds a separate entry of the source.
# Assay: Acute toxicity assay in Wistar rats
# Description: Wistar rats (n=5) were inoculated IP with different doses of BSS-593 and effects on liver, renal and lipid homeostasis were assessed by dosing different biochemical parameters 48 h after inoculation. ALT, AST and LDH were determined as markers of liver function and serum level of creatinine were determined as marker of renal function. Serum levels of total cholesterol, low-density cholesterol (LDL), high-density cholesterol (HDL) and triglycerides were measured to evaluate the effect of the drugs on lipid homeostasis. Results were expressed as the means with their standard errors and were compared using a one-factorial ANOVA test, followed by a Bonferroni's multi-comparison post hoc test.
# In an embodiment, the acute toxicity assay of spiro-β-lactam BSS-593 was carried out. […] Control animals were administered with sterile saline (1 mL/kg; n=4). […] After blood collection animals were necropsied to identify macroscopic signs of organ injury.
# In an embodiment, an acute toxicity assay was carried out. Female Wistar (220-250 g) rats were randomly divided in 4 groups. […] A fourth group of control animals was administered with sterile saline (B. Braun, Portugal) (1 mL/kg; n=4). Animals received the test drug via the intraperitoneal route and were monitored regularly for visible stress or toxicity signs such as death. All rats were anesthetized with sodium pentobarbital (Eutasil, 60 mg/kg i.p; Sanofi VeterinAria, Alges, Portugal) prior to intracardiac puncture for blood collection. […] Blood was collected into a serum SST gel and clot activator tube (Becton Dickinson, Le Pont de Claix, France) and was centrifuged (1000×g for 10 min at room temperature) to separate serum. Serum was analyzed within 24 h on a laboratory bench Clinical Chemistry Analyser c111 (Roche Diagnostics, Lda). Uver injury was assessed by measuring the rise in the serum levels of alanine aminotransferase (ALT, a specific marker for hepatic parenchymal injury), aspartate aminotransferase (AST, a nonspecific marker for hepatic injury) and lactate dehydrogenase (LDH, a marker of nonspecific cellular injury). Serum levels of creatinine was determined as marker of renal injury. Serum levels of total cholesterol, low-density cholesterol (LDL), high-density cholesterol (HDL) and triglycerides were also measured to evaluate the effect of the drugs on lipid homeostasis. Results were expressed as the means with their standard errors and were compared using a one-factorial ANOVA test, followed by a Bonferroni's multi-comparison post hoc test. A P value <0.05 was considered to be statistically significant.
# [1] = single intraperitoneal dose 0.1, 1 or 10 mg/kg, 48 h
smiles,measurement,setting,value
"COC(=O)C1=C[C@@]2(N=N1)C(=O)N1[C@@H](C(=O)O)C(C)(C)S[C@@H]12 [BSS-593, (2,3′R,5R)-5′-(methoxycarbonyl)-3,3-dimethyl-7-oxo-4-thia-1-azaspiro[bicyclo[3.2.0]heptane-6,3′-pyrazole]-2-carboxylic acid]",time to anaesthesia (sodium pentobarbital) between treated and control animals,"intraperitoneal 0.1, 1 or 10 mg/kg, reflects apparent CNS effects",no significant differences
same,abnormal behavior or signs of toxicity,[1],No abnormal behavior or signs of abnormal toxicity were noticed
same,"biochemical markers of liver function, kidney function and general cell injury (ALT, AST, creatinine, LDH in the blood) vs control animals",[1],no significant differences; also recorded: does not induce liver and renal injury
same,"blood lipid profiles (cholesterol, LDL, HDL and TG)",[1],no changes; also recorded: does not alter lipid metabolism
same,macroscopic signs of organ injury at necropsy,"single intraperitoneal dose 0.1, 1 or 10 mg/kg, after blood collection",No significant differences
same,animal survival rate,"single intraperitoneal dose 0.1, 1 or 10 mg/kg, test period of 48 h",100%
